Assay results reported in patent US8987193B2, “Nisin derivatives and the use thereof” (University College Cork—National University of Ireland, Cork, priority 2008, dated 2015).
Entries after “also recorded” stand apart in the source; their conditions may differ. Ends that are not written are not given here.

Tests used:
[1] = system: indicator strains; assay: Deferred antagonism assays, various indicator strains (summary); assay type: cell-based; conditions: for Strain(s) against which the derivative (producing strain) displays enhanced bioactivity: relative to nisin A-producing control, value = strains listed; for bioactivity of the producing strain, in words: in general / against the strains tested
Outline: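 Producer strains were replicated on GM17 or GM17 x-gal agar, grown overnight, then overlaid with GM17, BHI, TS or MH soft agar (0.75% w/v) seeded with the indicator strain. Zone size was taken as the clearing diameter minus the diameter of bacterial growth (5 mm).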

[2] = system: Staph. aureus DPC5245; assay: Deferred antagonism assay; assay type: cell-based; conditions: producing strain; diameter of zone minus 5 mm; average of duplicates; St. aureus DPC5245
Outline: (§1)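 Producer strains replicated on GM17 agar, grown overnight, then overlaid with soft agar (0.75% w/v) seeded with indicator strain. Zone size = clearing diameter minus 5 mm growth diameter, relative to NZ9800 pCI372nisA control; mean of duplicates.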

[3] = system: Strep. agalactiae ATCC13813; assay: Deferred antagonism assay; assay type: cell-based; conditions: producing strain, diameter of zone minus 5 mm, average of duplicates
[4] = system: Staph. aureus ST528 (MRSA); assay: Deferred antagonism assay; assay type: cell-based; conditions: producing strain, diameter of zone minus diameter of bacterial growth (5 mm), average of duplicates
Outline: as §1

[5] = system: L. monocytogenes CBC3; assay: Deferred antagonism assay; assay type: cell-based, Listeria monocytogenes; set-up: key: + = Enhanced bioactivity relative to control; − = Bioactivity equal to or less than control; NA = no activity evident; conditions: producing strain; L. mono CBC3
Outline: (§2)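 L. lactis NZ9800 strains expressing nisin A hinge variants were replicated or spotted on GM17 agar, grown overnight, then overlaid with 0.75% w/v agar seeded with indicator. Zone size is the clearing diameter minus 5 mm colony growth.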

[6] = system: L. monocytogenes CBC2; assay: Deferred antagonism assay; assay type: cell-based, Listeria monocytogenes; set-up: key: + = Enhanced bioactivity relative to control; − = Bioactivity equal to or less than control; NA = no activity evident; conditions: producing strain; L. mono CBC2
Outline: as §2

[7] = system: L. monocytogenes CBC1; assay: Deferred antagonism assay; assay type: cell-based, Listeria monocytogenes; set-up: key: + = Enhanced bioactivity relative to control; − = Bioactivity equal to or less than control; NA = no activity evident; conditions: producing strain; L. mono CBC1
Outline: as §2

[8] = system: L. plantarum CBC6; assay: Deferred antagonism assay; assay type: cell-based, Lactobacillus plantarum; set-up: key: + = Enhanced bioactivity relative to control; − = Bioactivity equal to or less than control; NA = no activity evident; conditions: producing strain
Outline: as §2

[9] = system: C. sporogenes CBC5; assay: Deferred antagonism assay; assay type: cell-based, Clostridium sporogenes; set-up: key: + = Enhanced bioactivity relative to control; − = Bioactivity equal to or less than control; NA = no activity evident; conditions: producing strain
[10] = system: S. aureus CBC4; assay: Deferred antagonism assay; assay type: cell-based; set-up: key: + = Enhanced bioactivity relative to control; − = Bioactivity equal to or less than control; NA = no activity evident; conditions: producing strain
Outline: as §2

[11] = system: L. lactis CBC7; assay: Deferred antagonism assay; assay type: cell-based; set-up: key: + = Enhanced bioactivity relative to control; − = Bioactivity equal to or less than control; NA = no activity evident; conditions: producing strain
Outline: as §2

[12] = system: L. lactis CBC8; assay: Deferred antagonism assay; assay type: cell-based; set-up: key: + = Enhanced bioactivity relative to control; − = Bioactivity equal to or less than control; NA = no activity evident; conditions: producing strain
Outline: as §2

Row | Substance | relative bioactivity against the indicators of Table 6 ([1]; Staph. aureus ST528, DPC5245 and Strep. agalactiae ATCC 13813 taken together) | Strain(s) against which the derivative (producing strain) displays enhanced bioactivity [1] | zone size relative to that of the NZ9800 pCI372nisA control [2] | zone size relative to that of the NZ9800 pCI372nisA control [3] | zone size relative to that of the NZ9800 pCI372nisA control [4] | Bioactivity relative to control [5] | Bioactivity relative to control [6] | Bioactivity relative to control [7] | Bioactivity relative to control [8] | Bioactivity relative to control [9] | Bioactivity relative to control [10] | Bioactivity relative to control [11] | Bioactivity relative to control [12] | bioactivity of the producing strain, in words [1]
1 | NisinA K22G (ITSISLCTPGCKTGALMGCNMGTATCHCSIHVSK; cysteine pairing not given here; also: lantibiotic nisin-A; UniProt P13068 24-57, looked up, variant K22G) [nisin A derivative, hinge substitution K22G] | approximately 120% | L. lactis CBC7 and CBC8; also recorded: DPC5425, Strep. agalactiae ATCC 13813 | 112% | 126% | 118.5% | − | − | − | − | − | − | + | + | 
2 | NisinA K22L (ITSISLCTPGCKTGALMGCNMLTATCHCSIHVSK; not fully specified; cysteine pairing not given here; also: lantibiotic nisin-A; UniProt P13068 24-57, looked up, variant K22L) [nisin A derivative, hinge substitution K22L] |  | L. lactis CBC8 | 89% | 108% | 93.5% | − | − | − | − | − | − | − | + | retention of relatively high levels of bioactivity
3 | NisinA K22M (ITSISLCTPGCKTGALMGCNMMTATCHCSIHVSK; cysteine pairing not given here; also: lantibiotic nisin-A; UniProt P13068 24-57, looked up, variant K22M) [nisin A derivative, hinge substitution K22M] |  | L. lactis CBC8 | 79.5% | 104% | 77% | − | − | − | − | − | − | − | + | retention of relatively high levels of bioactivity
4 | NisinA K22Q (ITSISLCTPGCKTGALMGCNMQTATCHCSIHVSK; not fully specified; also: lantibiotic nisin: dehydrated residues and thioether rings not placed; UniProt P13068 24-57, looked up, variant K22Q) [nisin A derivative, hinge substitution K22Q] |  | L. lactis CBC8 | 77% | 82% | 82% | − | − | − | − | − | − | − | + | slightly diminished bioactivity
5 | NisinA K22V |  | L. monocytogenes CBC2 and L. lactis CBC8 | 113% | 126% | 107% | − | + | − | − | − | − | − | + | 
6 | NisinA M21A (ITSISLCTPGCKTGALMGCNAKTATCHCSIHVSK; not fully specified; also: lantibiotic nisin: dehydrated residues and thioether rings not placed; UniProt P13068 24-57, looked up, variant M21A) [nisin A derivative, hinge substitution M21A] |  | L. monocytogenes CBC1 and L. lactis CBCT and CBC8; also recorded: L. monocytogenes CBC1 , and L. lactis CBC7 and CBC8; also recorded: L. monocytogenes CBC1, L. lactis CBC7, CBC8, S. aureus | 135% | 105% | 132.5% | − | − | + | − | − | − | + | + | 
7 | NisinA M21K (ITSISLCTPGCKTGALMGCNKKTATCHCSIHVSK; not fully specified; also: lantibiotic nisin: dehydrated residues and thioether rings not placed; UniProt P13068 24-57, looked up, variant M21K) [nisin A derivative, hinge substitution M21K] |  | Staph. aureus CBC4 and C. sporogenes CBC5; also recorded: S. aureus CBC 4 and C. sporogenes CBC5; also recorded: S. aureus CBC4, C. sporogenes CBC5 | 104% | 91% | 89% | − | − | − | − | + | + | − | − | close to wild-type bioactivities
